Bridge positions count the residues as written; N and C are the ends. Square brackets hold non-standard residues; d marks the D form. Peptide text beside a SMILES is read from it. Orn = NCCC[C@H](N)C(=O)O
What was measured:
K. pneumonia ATCC 10031 = format: cell-based, Klebsiella pneumoniae; details: ATCC 10031, 24 h
Experimental: (§1) Assays were performed by Trideum Biosciences (Frederick, MD, USA). Isolates were thawed from −80 °C storage and sub-cultured on trypticase soy agar plates at 37 °C prior to experimentation. A single colony was aseptically picked from the agar plate and released in 30 mL trypticase soy broth and incubated overnight at 37 °C incubator. Following which the bacterial culture was diluted to approximately 10^6 colony forming units (CFU)/mL using 2X cation adjusted Mueller–Hinton broth and added to the dAMP solutions (0, 2, 4, 8, 16, 32, 64, and 128 μg/mL) which had been formulated in water at 256 μg/mL and then serially diluted in media on 96-well pates. For fungal evaluation, potato dextrose broth and potato dextrose agar plates were used. The treated cultures were then incubated for 24 h at 37 °C and pathogen growth was measured by absorbance at 600 nm. Four replicas were included for each dAMP concentration. Each MIC was assigned to the lowest test agent concentration resulting in at least three out of four wells showing no growth based on an optical density (OD) reading of <0.1.

K. pneumonia 6069 = format: cell-based, Klebsiella pneumoniae; details: 24 h
Experimental: as §1

[1] = tested on: P. aeruginosa 19660 (Xen5 luciferase); experiment: Bioluminescent time-kill assay; format: cell-based, Pseudomonas aeruginosa; details: 8 μg/mL, 60 min, bioluminescence, triplicates from two independent experiments
Excerpt: (§2) Fungal and bacterial strains were obtained from American Type Culture Collection (ATCC, Manassas, VA, USA) or the clinical isolate collection at Trideum Biosciences (Frederick, MD, USA) and are presented in Table 1 and Table 2, respectively. Bioluminescence strains of P. aeruginosa 19660, transfected with the Xen5 luciferase gene, and S. aureus ATCC R 49525TM (Wright), transfected with the Xen36 luciferase gene, were obtained from Perkin Elmer (Waltham, MA, USA).
(§3) Real-time killing of bacterial cells, P. aeruginosa or S. aureus, and mammalian cytotoxicity to assess dAMP off-target toxicity was evaluated using bioluminescent cells. The L929 fibroblast cells (ATCC, Manassas, VA, USA) were made bioluminescent by transfection with a luciferase gene. Cells (1 × 10^4 cells, 100 μL) were plated in 96-well black-walled plates and the candidate dAMPs were 2-fold serially diluted from specified concentrations in growth medium supplemented with 150 μg/mL D-luciferin. Each concentration was performed in triplicate, with the final volume being 200 μL. Imaging was performed at select times after the addition of the dAMP, and compared to concurrently run vehicle-control, using an IVIS Lumina imaging system (Caliper Life Sciences, Inc., Hopkinton, MA, USA). For imaging, the 96-well plate was positioned on the stage (12.5-cm field of view), with an open emission filter, binning of 4, and f-stop 1 and a 1-min exposure time. Monitoring bioluminescence allows assessment of the kinetics of cellular viability as there is a tight correlation between the bioluminescent signal and cell viability. Data analysis was performed using the Living Image software program (version 4.3, Caliper Life Sciences, Inc., Hopkinton, MA, USA).
(§4) Figure 3 RP553, RP556, RP557 rapidly destroy P. aeruginosa and S. aureus. The bioluminescence of viable P. aeruginosa 19,660 and S. aureus 49,525 cells was quantitated in real time with an IVIS Lumina bioimaging system. Data represent the mean ± SE of triplicate replicates from two independent experiments. For some points, the error bars are shorter than the height of the symbols.

A. baumannii ATCC 17978 = format: cell-based, Acinetobacter baumannii; details: ATCC 17978, 24 h
Experimental: as §1

A. baumannii 6838 = format: cell-based, Acinetobacter baumannii; details: 6838, 24 h
Experimental: as §1

A. baumannii 6043 = format: cell-based, Acinetobacter baumannii; details: 6043, 24 h
Experimental: as §1

P. aeruginosa ATCC 27853 = format: cell-based, Pseudomonas aeruginosa; details: ATCC 27853, 24 h
Experimental: as §1

P. aeruginosa ATCC 19660 = format: cell-based, Pseudomonas aeruginosa; details: ATCC 19660, 24 h
Experimental: as §1

P. aeruginosa 6186 = format: cell-based, Pseudomonas aeruginosa; details: 6186, 24 h
Experimental: as §1

[2] = tested on: S. aureus 49525 (Xen36 luciferase); format: cell-based, Staphylococcus aureus; details: 8 μg/mL, 60 min incubation, bioluminescence, triplicates from two independent experiments
Excerpt: as §2, §3, §4

S. aureus 6061 = format: cell-based, Staphylococcus aureus; details: 6061, 24 h
Experimental: as §1

MRSA 6381 = format: cell-based, Staphylococcus aureus; details: 6381, 24 h
Experimental: as §1

MRSA ATCC 33592 = format: cell-based, Staphylococcus aureus; details: ATCC 33592, 24 h
Experimental: as §1

MRSA 6313 = format: cell-based, Staphylococcus aureus; details: 6313, 24 h
Experimental: as §1

S. aureus B-767 = format: cell-based, Staphylococcus aureus; details: B-767, 24 h
Experimental: as §1

[3] = tested on: vulvovaginal candidiasis infection; details: rodent vulvovaginal candidiasis, after three days of daily treatment; cited from earlier work
Excerpt: The dAMPs RP504, RP554 and RP557 were thus tested for their ability to treat a rodent vulvovaginal candidiasis infection. […] A daily dose with a 2% concentration lowered the CFU/sample by more than 4 logs compared to the con ...

Candida krusei Y-27803 = format: cell-based; details: Y-27803, 24 h
Experimental: as §1

E. cloacae 6053 = format: cell-based; details: 6053, 24 h
Experimental: as §1

[4] = tested on: Fusarium solani NRRL 28548; format: cell-based; details: NRRL 28548, 24 h
Experimental: as §1

S. epidermis ATCC 51625 = format: cell-based; details: ATCC 51625, 24 h
Experimental: as §1

[5] = tested on: Aspergillus flavus MYA-3651; format: cell-based; details: 24 h
Experimental: as §1

[6] = tested on: Aspergillus fumigatus 9648; format: cell-based; details: 9648, 24 h
Experimental: as §1

Candida albicans Y-326 = format: cell-based; details: Y-326, 24 h
Experimental: as §1

Candida albicans Y-6359 = format: cell-based; details: Y-6359, 24 h
Experimental: as §1

[7] = tested on: Mucor circinelloides NRRL 3631; format: cell-based; details: NRRL 3631, 24 h
Experimental: as §1

[8] = tested on: Absidia corymbifera NRRL 6251; format: cell-based; details: NRRL 6251, 24 h
Experimental: as §1

[9] = tested on: Candida parapsilosis Y-1763; format: cell-based; details: Y-1763, 24 h
Experimental: as §1

E. cloacae 6054 = format: cell-based; details: 6054, 24 h
Experimental: as §1

[10] = tested on: Aspergillus fumigatus 9651; format: cell-based; details: 9651, 24 h
Experimental: as §1

Candida krusei Y-27825 = format: cell-based; details: Y-27825, 24 h
Experimental: as §1

[11] = tested on: Aspergillus flavus MYA-1004; format: cell-based; details: 24 h
Experimental: as §1

[12] = tested on: Candida parapsilosis Y-1761; format: cell-based; details: Y-1761, 24 h
Experimental: as §1

CC[C@H](C)[C@H](NC(=O)CNC(=O)CNC(=O)[C@@H]1CSSC[C@H](NC(=O)CNC(=O)CNC(=O)[C@H](CC(C)C)NC(=O)[C@H](CCCN)NC(=O)[C@H](C)NC(=O)[C@H](CCCN)NC(=O)[C@@H](NC(=O)[C@H](CCCN)NC(=O)[C@@H](N)Cc2ccccc2)[C@@H](C)CC)C(=O)N[C@@H](CC(C)C)C(=O)NCC(=O)N[C@@H](CCCN)C(=O)N[C@@H](Cc2ccccc2)C(=O)N1)C(=O)N[C@@H](CCCN)C(=O)N[C@@H](C)C(=O)N[C@@H](CCCN)C(=O)N[C@@H](CC(C)C)C(=O)N[C@@H](C)C(=O)N[C@@H](Cc1ccccc1)C(N)=O [RP504] (H-F[Orn]I[Orn]A[Orn]LGGCLG[Orn]FCGGI[Orn]A[Orn]LAF-NH2; disulfide 10-15)
64 µg/mL: MIC against A. baumannii 6838 (A. baumannii 6838) | MIC against S. aureus 6061 (S. aureus 6061) | MIC against MRSA 6381 (MRSA 6381) | MIC against MRSA 6313 (MRSA 6313) | MIC against E. cloacae 6054 (E. cloacae 6054)
2 µg/mL: MIC against Fusarium solani NRRL 28548 [4] | MIC against Candida parapsilosis Y-1763 [9]
≥ 2.5 logs: reduction of CFU/tissue sample [3]
25%: P. aeruginosa destroyed [1]
32 µg/mL: MIC against K. pneumonia ATCC 10031 (K. pneumonia ATCC 10031) | MIC against K. pneumonia 6069 (K. pneumonia 6069) | MIC against A. baumannii ATCC 17978 (A. baumannii ATCC 17978) | MIC against A. baumannii 6043 (A. baumannii 6043) | MIC against MRSA ATCC 33592 (MRSA ATCC 33592) | MIC against S. aureus B-767 (S. aureus B-767) | MIC against E. cloacae 6053 (E. cloacae 6053)
>128 µg/mL: MIC against Aspergillus flavus MYA-3651 [5] | MIC against Aspergillus fumigatus 9648 [6] | MIC against Mucor circinelloides NRRL 3631 [7] | MIC against Aspergillus fumigatus 9651 [10] | MIC against Aspergillus flavus MYA-1004 [11]
16 µg/mL: MIC against P. aeruginosa ATCC 27853 (P. aeruginosa ATCC 27853) | MIC against P. aeruginosa ATCC 19660 (P. aeruginosa ATCC 19660) | MIC against P. aeruginosa 6186 (P. aeruginosa 6186) | MIC against S. epidermis ATCC 51625 (S. epidermis ATCC 51625)
13%: S. aureus killing [2]
4 µg/mL: MIC against Candida albicans Y-6359 (Candida albicans Y-6359)
8 µg/mL: MIC against Candida krusei Y-27803 (Candida krusei Y-27803) | MIC against Candida albicans Y-326 (Candida albicans Y-326) | MIC against Absidia corymbifera NRRL 6251 [8] | MIC against Candida krusei Y-27825 (Candida krusei Y-27825) | MIC against Candida parapsilosis Y-1761 [12]

— paper PMC7559897, “Designed Antimicrobial Peptides Against Trauma-Related Cutaneous Invasive Fungal Wound Infections” (Journal of Fungi, 2020)
